Reference: patent US11548870B2, “Compounds useful as inhibitors of helios protein” (Bristol-Myers Squibb Company, priority 2019, dated 2023)

Columns and labels:
[1] = target: T1, Helios (Homo sapiens, UniProt Q96SW2+Q9UKS7); experiment: Helios Cellular Degradation Assay (flow cytometry, Helios-PE antibody staining, 72 h); format: cell-based; settings: Jurkat cells, 72 h incubation, flow cytometry; for Dmax: Jurkat, read-out: Helios Dmax
T1 construct: fluorescently labelled antibodies against Helios and Ikaros; endogenous in cells; host or cells: Jurkat cells
Method: (§1) Helios Cellular Degradation Assay
(§2) Jurkat cells were plated at 80,000 cells/well in 40 μL RPMI+10% FBS in a 384 well cell culture plate prior to using acoustic dispensing technology for adding compound of interest. Cell cultures were incubated for 72 h at 37° C. and 5% CO2. In order to facilitate analysis, cell cultures were spun down at 200 rpm for 5 min and the supernatant was discarded. After shaking the plate to dislodge the cell pellet, cells were resuspended in 50 μL of Fixation Buffer (eBioScience FoxP3 buffer set 0000) for 60 min at room temperature. After centrifuging and discarding the supernatant, cells were permeabilized with 50 μL of Permeabilization buffer (eBioScience FoxP3 buffer set 00-5523-00) for 10 min at room temperature. Following permeabilization, cells were spun down and the supernatant was replaced with 20 μL fluorescently labelled antibodies against Helios and Ikaros or corresponding Isotype controls in 1× Permeabilization buffer (Ikaros-Alexa488 [Biolegend, Cat #368408, 1:50], Helios-PE [CST, Cat #29360, 1:50]) and staining reactions were incubated for 1 h at room temperature; protected from light. Subsequently, 30 μL of 1× Permeabilization buffer was added prior to centrifuging the cells and discarding the supernatant. Stained cells were resuspended in 25 μL of flow cytometry staining buffer (PBS+0.2% BSA) and analyzed using an Intellicyt Ique Plus flow cytometer.
as §2, with “00-5523-00)” for “0000)”

[2] = target: T2, Ikaros (Homo sapiens, UniProt Q13422); experiment: Helios Cellular Degradation Assay, Ikaros readout (flow cytometry, Ikaros-Alexa488 antibody staining, 72 h); format: cell-based; settings: Jurkat cells, 72 h incubation, flow cytometry; for Dmax: Jurkat, read-out: Ikaros Dmax
T2 construct: fluorescently labelled antibodies against Helios and Ikaros; endogenous in cells; host or cells: Jurkat cells
Method: as §1, §2
as §2, with “00-5523-00)” for “0000)”

T1 sequence (Q9UKS7 whole entry): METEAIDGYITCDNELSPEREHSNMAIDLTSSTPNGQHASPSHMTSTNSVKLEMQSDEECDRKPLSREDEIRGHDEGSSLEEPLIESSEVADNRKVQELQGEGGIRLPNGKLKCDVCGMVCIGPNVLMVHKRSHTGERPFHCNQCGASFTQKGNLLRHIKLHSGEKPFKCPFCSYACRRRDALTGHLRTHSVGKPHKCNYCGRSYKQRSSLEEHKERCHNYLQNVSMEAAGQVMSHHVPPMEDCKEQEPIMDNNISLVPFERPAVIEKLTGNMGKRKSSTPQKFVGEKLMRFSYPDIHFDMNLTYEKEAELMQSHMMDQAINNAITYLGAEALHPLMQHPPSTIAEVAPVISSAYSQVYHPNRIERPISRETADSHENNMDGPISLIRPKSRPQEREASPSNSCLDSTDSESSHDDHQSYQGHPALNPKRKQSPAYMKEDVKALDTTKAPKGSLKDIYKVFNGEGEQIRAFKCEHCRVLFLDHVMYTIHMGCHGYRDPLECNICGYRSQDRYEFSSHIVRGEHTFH
T1 sequence (Q96SW2 whole entry): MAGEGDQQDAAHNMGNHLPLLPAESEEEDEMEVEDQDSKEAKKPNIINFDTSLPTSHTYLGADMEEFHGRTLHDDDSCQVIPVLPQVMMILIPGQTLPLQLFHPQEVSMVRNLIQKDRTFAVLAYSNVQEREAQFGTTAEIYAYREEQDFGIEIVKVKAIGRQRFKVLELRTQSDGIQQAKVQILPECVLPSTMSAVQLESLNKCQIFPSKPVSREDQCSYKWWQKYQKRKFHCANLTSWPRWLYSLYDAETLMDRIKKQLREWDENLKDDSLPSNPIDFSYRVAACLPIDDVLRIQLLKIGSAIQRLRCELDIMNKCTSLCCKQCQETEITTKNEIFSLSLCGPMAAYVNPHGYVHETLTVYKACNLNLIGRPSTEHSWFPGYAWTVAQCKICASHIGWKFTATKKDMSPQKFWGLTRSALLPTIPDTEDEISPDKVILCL
T1 sequence (Q16531 whole entry partner): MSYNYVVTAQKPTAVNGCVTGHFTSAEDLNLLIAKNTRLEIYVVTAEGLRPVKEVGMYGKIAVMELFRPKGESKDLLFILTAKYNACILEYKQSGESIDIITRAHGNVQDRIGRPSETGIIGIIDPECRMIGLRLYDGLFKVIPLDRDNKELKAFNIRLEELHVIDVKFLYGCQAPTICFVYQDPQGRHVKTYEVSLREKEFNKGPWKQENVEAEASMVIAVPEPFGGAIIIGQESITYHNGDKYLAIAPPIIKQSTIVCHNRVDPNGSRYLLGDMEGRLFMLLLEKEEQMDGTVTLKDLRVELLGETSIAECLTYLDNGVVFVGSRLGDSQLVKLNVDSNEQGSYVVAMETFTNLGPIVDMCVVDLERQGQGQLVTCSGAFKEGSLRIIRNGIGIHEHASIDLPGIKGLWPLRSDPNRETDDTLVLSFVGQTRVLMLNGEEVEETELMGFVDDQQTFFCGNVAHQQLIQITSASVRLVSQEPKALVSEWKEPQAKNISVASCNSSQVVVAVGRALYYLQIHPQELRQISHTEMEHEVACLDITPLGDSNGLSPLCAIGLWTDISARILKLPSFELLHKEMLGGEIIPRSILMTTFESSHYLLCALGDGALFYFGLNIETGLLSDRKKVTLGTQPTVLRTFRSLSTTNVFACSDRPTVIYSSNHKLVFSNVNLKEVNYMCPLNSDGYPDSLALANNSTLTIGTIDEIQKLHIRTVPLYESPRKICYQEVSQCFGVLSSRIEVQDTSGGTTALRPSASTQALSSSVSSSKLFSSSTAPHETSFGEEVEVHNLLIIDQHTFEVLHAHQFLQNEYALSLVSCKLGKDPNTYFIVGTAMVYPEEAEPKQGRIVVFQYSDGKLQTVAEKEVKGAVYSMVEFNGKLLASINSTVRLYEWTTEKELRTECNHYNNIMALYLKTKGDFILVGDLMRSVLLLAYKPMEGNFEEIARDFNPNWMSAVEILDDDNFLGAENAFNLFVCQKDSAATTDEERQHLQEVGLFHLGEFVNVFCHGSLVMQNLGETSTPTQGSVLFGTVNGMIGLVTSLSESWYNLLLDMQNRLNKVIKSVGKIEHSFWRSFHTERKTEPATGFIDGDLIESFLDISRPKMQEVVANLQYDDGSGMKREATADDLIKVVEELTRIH
T2 sequence (Q96SW2 whole entry partner): as the sequence (Q96SW2 whole entry) above
T2 sequence (Q16531 whole entry partner): as the sequence (Q16531 whole entry partner) above
T2 sequence (Q13422 whole entry): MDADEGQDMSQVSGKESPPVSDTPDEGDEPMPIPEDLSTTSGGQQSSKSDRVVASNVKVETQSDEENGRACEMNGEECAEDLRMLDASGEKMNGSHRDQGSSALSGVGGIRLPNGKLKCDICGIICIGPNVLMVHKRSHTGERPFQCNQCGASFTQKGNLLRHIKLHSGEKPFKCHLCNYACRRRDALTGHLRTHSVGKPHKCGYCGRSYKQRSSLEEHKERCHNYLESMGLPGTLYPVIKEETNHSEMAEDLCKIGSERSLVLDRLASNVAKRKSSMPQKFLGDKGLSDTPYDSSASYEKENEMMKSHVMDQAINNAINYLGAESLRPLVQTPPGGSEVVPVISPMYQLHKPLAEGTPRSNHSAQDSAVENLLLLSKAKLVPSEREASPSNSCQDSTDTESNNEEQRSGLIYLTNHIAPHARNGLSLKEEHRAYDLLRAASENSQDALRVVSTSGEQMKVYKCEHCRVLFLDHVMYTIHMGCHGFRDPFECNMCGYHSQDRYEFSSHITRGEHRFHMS

Row | Structure (SMILES) | DC50 [1] | Dmax [1] | DC50 [2] | Dmax [2] | Helios Dmax [1] | Ikaros Dmax [2]
1 | CC(C)N1CCN(Cc2ccnc(-c3ccc4c(c3)CN(C3CCC(=O)NC3=O)C4=O)c2)CC1 (stereo not drawn) [Example 44, 3-(5-(4-((4-isopropylpiperazin-1-yl)methyl)pyridin-2-yl)-1-oxoisoindolin-2-yl)piperidine-2,6-dione] | > 10000 nM | 36% | > 10000 nM | 12% |  | 
2 | CN(C)[C@@H]1CCN(Cc2ccnc(-c3ccc4c(c3)CN(C3CCC(=O)NC3=O)C4=O)c2)C1 (stereo partly drawn) [Example 45, 3-(5-(4-(((R)-3-(dimethylamino)pyrrolidin-1-yl)methyl)pyridin-2-yl)-1-oxoisoindolin-2-yl)piperidine-2,6-dione] | > 10000 nM | 43% | > 10000 nM | 6% |  | 
3 | CC1CCN1Cc1ccnc(-c2ccc3c(c2)CN(C2CCC(=O)NC2=O)C3=O)c1 (stereo not drawn) [Example 46, 3-(5-(4-((2-methylazetidin-1-yl)methyl)pyridin-2-yl)-1-oxoisoindolin-2-yl)piperidine-2,6-dione] | 18 nM | 83% | > 10000 nM | 6% |  | 
4 | CC1CN(Cc2ccnc(-c3ccc4c(c3)CN(C3CCC(=O)NC3=O)C4=O)c2)C1 (stereo not drawn) [Example 47, 3-(5-(4-((3-methylazetidin-1-yl)methyl)pyridin-2-yl)-1-oxoisoindolin-2-yl)piperidine-2,6-dione] | 17 nM | 79% | > 10000 nM | 8% |  | 
5 | O=C1CCC(N2Cc3cc(-c4cc(CN5CCCCCC5)ccn4)ccc3C2=O)C(=O)N1 (stereo not drawn) [Example 48, 3-(5-(4-(azepan-1-ylmethyl)pyridin-2-yl)-1-oxoisoindolin-2-yl)piperidine-2,6-dione] | 32 nM | 72% | > 10000 nM | 6% |  | 
6 | CN1CCC(N(C)Cc2ccnc(-c3ccc4c(c3)CN(C3CCC(=O)NC3=O)C4=O)c2)C1 (stereo not drawn) [Example 49, 3-(5-(4-((methyl(1-methylpyrrolidin-3-yl)amino)methyl)pyridin-2-yl)-1-oxoisoindolin-2-yl)piperidine-2,6-dione] | > 10000 nM |  | > 10000 nM |  | 29% | 3%
7 | CCN(CC)Cc1ccnc(-c2ccc3c(c2)CN(C2CCC(=O)NC2=O)C3=O)c1 (stereo not drawn) [Example 50, 3-(5-(4-((diethylamino)methyl)pyridin-2-yl)-1-oxoisoindolin-2-yl)piperidine-2,6-dione] | 22 nM | 78% | > 10000 nM | 12% |  | 
8 | CC1(C)CN(Cc2ccnc(-c3ccc4c(c3)CN(C3CCC(=O)NC3=O)C4=O)c2)C1 (stereo not drawn) [Example 51, 3-(5-(4-((3,3-dimethylazetidin-1-yl)methyl)pyridin-2-yl)-1-oxoisoindolin-2-yl)piperidine-2,6-dione] | 64 nM | 70% | > 10000 nM | 11% |  | 
9 | CC1(C)CCN1Cc1ccnc(-c2ccc3c(c2)CN(C2CCC(=O)NC2=O)C3=O)c1 (stereo not drawn) [Example 52, 3-(5-(4-((2,2-dimethylazetidin-1-yl)methyl)pyridin-2-yl)-1-oxoisoindolin-2-yl)piperidine-2,6-dione] | 300 nM | 67% | > 10000 nM | 10% |  | 
10 | CC1CCCC(C)N1Cc1ccnc(-c2ccc3c(c2)CN(C2CCC(=O)NC2=O)C3=O)c1 (stereo not drawn) [Example 53, 3-(5-(4-((2,6-dimethylpiperidin-1-yl)methyl)pyridin-2-yl)-1-oxoisoindolin-2-yl)piperidine-2,6-dione] | 231 nM | 77% | > 10000 nM | 21% |  | 
11 | O=C1CCC(N2Cc3cc(-c4cc(CNCC5CCCCC5)ccn4)ccc3C2=O)C(=O)N1 (stereo not drawn) [Example 54, 3-(5-(4-(((cyclohexylmethyl)amino)methyl)pyridin-2-yl)-1-oxoisoindolin-2-yl)piperidine-2,6-dione] | 16 nM | 83% | > 10000 nM | 12% |  | 
12 | CC(NCc1ccnc(-c2ccc3c(c2)CN(C2CCC(=O)NC2=O)C3=O)c1)c1ccccc1 (stereo not drawn) [Example 55, 3-(1-oxo-5-(4-(((1-phenylethyl)amino)methyl)pyridin-2-yl)isoindolin-2-yl) piperidine-2,6-dione] | 9 nM | 91% | > 10000 nM | 10% |  | 
13 | Cc1ccccc1CNCc1ccnc(-c2ccc3c(c2)CN(C2CCC(=O)NC2=O)C3=O)c1 (stereo not drawn) [Example 56, 3-(5-(4-(((2-methylbenzyl)amino)methyl)pyridin-2-yl)-1-oxoisoindolin-2-yl)piperidine-2,6-dione] | 13 nM | 88% | > 10000 nM | 18% |  | 
14 | Cc1cccc(CNCc2ccnc(-c3ccc4c(c3)CN(C3CCC(=O)NC3=O)C4=O)c2)c1 (stereo not drawn) [Example 57, 3-(5-(4-(((3-methylbenzyl)amino)methyl)pyridin-2-yl)-1-oxoisoindolin-2-yl)piperidine-2,6-dione] | > 10000 nM | 32% | > 10000 nM | 0% |  | 
15 | Cc1ccc(CNCc2ccnc(-c3ccc4c(c3)CN(C3CCC(=O)NC3=O)C4=O)c2)cc1 (stereo not drawn) [Example 58, 3-(5-(4-(((4-methylbenzyl)amino)methyl)pyridin-2-yl)-1-oxoisoindolin-2-yl)piperidine-2,6-dione] | 9 nM | 88% | > 10000 nM | 22% |  | 
16 | CN(Cc1ccnc(-c2ccc3c(c2)CN(C2CCC(=O)NC2=O)C3=O)c1)CC1CCCCC1 (stereo not drawn) [Example 59, 3-(5-(4-(((cyclohexylmethyl)(methyl)amino)methyl)pyridin-2-yl)-1-oxoisoindolin-2-yl) piperidine-2,6-dione] | 82 nM | 79% | > 10000 nM | 20% |  | 
17 | O=C1CCC(N2Cc3cc(-c4cc(CN5CCC6CCCC65)ccn4)ccc3C2=O)C(=O)N1 (stereo not drawn) [Example 60, 3-(5-(4-((hexahydrocyclopenta[b]pyrrol-1(2H)-yl)methyl)pyridin-2-yl)-1-oxoisoindolin-2-yl) piperidine-2,6-dione] | 548 nM | 63% | > 10000 nM | 19% |  | 
18 | CCCCNCc1ccnc(-c2ccc3c(c2)CN(C2CCC(=O)NC2=O)C3=O)c1 (stereo not drawn) [Example 61, 3-(5-(4-((butylamino)methyl)pyridin-2-yl)-1-oxoisoindolin-2-yl)piperidine-2,6-dione] | 12 nM | 83% | > 10000 nM | 5% |  | 
19 | CCCNCc1ccnc(-c2ccc3c(c2)CN(C2CCC(=O)NC2=O)C3=O)c1 (stereo not drawn) [Example 62, 3-(1-oxo-5-(4-((propylamino)methyl)pyridin-2-yl)isoindolin-2-yl)piperidine-2,6-dione] | 45 nM | 80% | > 10000 nM | 5% |  | 
20 | O=C1CCC(N2Cc3cc(-c4cc(CNCCc5ccccc5)ccn4)ccc3C2=O)C(=O)N1 (stereo not drawn) [Example 63, 3-(1-oxo-5-(4-((phenethylamino)methyl)pyridin-2-yl)isoindolin-2-yl)piperidine-2,6-dione] | 14 nM | 80% | > 10000 nM | 13% |  | 
21 | O=C1CCC(N2Cc3cc(-c4cc(CNCC5CC5)ccn4)ccc3C2=O)C(=O)N1 (stereo not drawn) [Example 64, 3-(5-(4-(((cyclopropylmethyl)amino)methyl)pyridin-2-yl)-1-oxoisoindolin-2-yl)piperidine-2,6-dione] | 36 nM | 73% | > 10000 nM | 1% |  | 
